Test results: US20150051176A1, “ARYL DERIVATIVES AS SPHINGOSINE-1 PHOSPHATE RECEPTORS MODULATORS” (Allergan, Inc., priority 2013, published 2015)

The compounds below were run against T1, human S1P1 receptor (Homo sapiens, UniProt P21453) (assay: GTP γ35S binding assay for S1P1 activity). Settings: membranes of cells stably expressing the S1P1 receptor, test concentrations 0.08 to 5,000 nM.
T1 construct: expressed in transfected cells; membranes used
Assay type: biochemical
Experimental: Compounds were synthesized and tested for S1P1 activity using the GTP γ^35S binding assay. These compounds may be assessed for their ability to activate or block activation of the human S1P1 receptor in cells stably expressing the S1P1 receptor.
GTP γ^35S binding was measured in the medium containing (mM) HEPES 25, pH 7.4, MgCl2 10, NaCl 100, dithiothreitol 0.5, digitonin 0.003%, 0.2 nM GTP γ^35S, and 5 μg membrane protein in a volume of 150 μl. Test compounds were included in the concentration range from 0.08 to 5,000 nM unless indicated otherwise. Membranes were incubated with 100 μM 5′-adenylylimidodiphosphate for 30 min, and subsequently with 10 μM GDP for 10 min on ice. Drug solutions and membrane were mixed, and then reactions were initiated by adding GTP γ^35S and continued for 30 min at 25° C. Reaction mixtures were filtered over Whatman GF/B filters under vacuum, and washed three times with 3 mL of ice-cold buffer (HEPES 25, pH7.4, MgCl2 10 and NaCl 100). Filters were dried and mixed with scintillant, and counted for ^35S activity using a β-counter. Agonist-induced GTP γ^35S binding was obtained by subtracting that in the absence of agonist. Binding data were analyzed using a non-linear regression method. In case of antagonist assay, the reaction mixture contained 10 nM […] in the presence of test antagonist at concentrations ranging from 0.08 to 5000 nM.

T1 sequence (P21453 whole entry): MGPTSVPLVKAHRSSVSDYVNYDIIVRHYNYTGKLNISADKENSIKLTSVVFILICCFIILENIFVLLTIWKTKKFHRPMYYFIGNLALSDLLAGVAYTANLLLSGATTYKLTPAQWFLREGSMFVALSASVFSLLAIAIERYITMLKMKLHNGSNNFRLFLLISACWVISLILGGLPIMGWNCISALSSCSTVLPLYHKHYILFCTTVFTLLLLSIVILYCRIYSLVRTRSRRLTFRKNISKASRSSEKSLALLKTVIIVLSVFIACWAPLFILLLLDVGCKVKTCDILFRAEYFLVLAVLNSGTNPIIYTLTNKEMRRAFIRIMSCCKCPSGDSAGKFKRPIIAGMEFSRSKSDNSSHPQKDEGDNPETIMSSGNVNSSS

Row | SMILES | EC50
1 | Cc1ccc(CC(CCCCCCNCCCP(=O)(O)O)c2cccc(Cl)c2)cc1C (centres unmarked) [3-{[7-(3-Chlorophenyl)-8-(3,4-dimethylphenyl)octyl]amino}propyl)phosphonic acid] | 169 nM
2 | Cc1ccc(CC(CCCCCCCCNCCCP(=O)(O)O)c2cccc(Cl)c2)cc1C (centres unmarked) [(3-{[9-(3-Chlorophenyl)-10-(3,4-dimethylphenyl)decyl]amino}propyl)phosphonic acid] | 293 nM
3 | O=P(O)(O)CCCNCCCCCCCCC(Cc1ccccc1)c1cccc(Cl)c1 (centres unmarked) [(3-{[9-(3-Chlorophenyl)-10-phenyldecyl]amino}propyl)phosphonic acid] | 2.13 nM
4 | O=C(O)CCNCCCCCCCCC(Cc1ccccc1)c1cccc(Cl)c1 (centres unmarked) [3-{[9-(3-Chlorophenyl)-10-phenyldecyl]amino}propanoic acid] | 21.8 nM
5 | Cc1ccc(CC(CCCCCCCNCCC(=O)O)c2cccc(Cl)c2)cc1C (centres unmarked) [3-{[8-(3-Chlorophenyl)-9-(3,4-dimethylphenyl)nonyl]amino}propanoic acid] | 487 nM

More lines, now with the values ahead:

Row | EC50 | SMILES
6 | 45.4 nM | Cc1ccc(CC(CCCCCCCNCCC(=O)O)c2cc(F)cc(F)c2)cc1C (centres unmarked) [3-{[8-(3,5-Difluorophenyl)-9-(3,4-dimethylphenyl)nonyl]amino}propanoic acid]
7 | 8.18 nM | Cc1ccc(CC(CCCCCCCNCCCP(=O)(O)O)c2cccc(Cl)c2)cc1C (centres unmarked) [3-{[8-(3-chlorophenyl)-9-(3,4-dimethylphenyl)nonyl]amino}propylphosphonic acid]
8 | 3.03 nM | Cc1ccc(CC(CCCCCCCNCCCP(=O)(O)O)c2cc(F)cc(F)c2)cc1C (centres unmarked) [(3-{[8-(3,5-Difluorophenyl)-9-(3,4-dimethylphenyl)nonyl]amino}propyl)phosphonic acid]
